Measured values reported in publication PMC11154005 (Science (New York, N.Y.), 2023).

Target: GerA complex (GerAA-GerAB-GerAC) (Bacillus subtilis, UniProt P07869)
Assay: membrane depolarisation, DiSC3
Format: cell-based
Details: 50 mM L-alanine; 30 min after addition; agonist, recognised by GerAB subunit

Sequence of GerA complex (GerAA-GerAB-GerAC) (P07869 whole entry): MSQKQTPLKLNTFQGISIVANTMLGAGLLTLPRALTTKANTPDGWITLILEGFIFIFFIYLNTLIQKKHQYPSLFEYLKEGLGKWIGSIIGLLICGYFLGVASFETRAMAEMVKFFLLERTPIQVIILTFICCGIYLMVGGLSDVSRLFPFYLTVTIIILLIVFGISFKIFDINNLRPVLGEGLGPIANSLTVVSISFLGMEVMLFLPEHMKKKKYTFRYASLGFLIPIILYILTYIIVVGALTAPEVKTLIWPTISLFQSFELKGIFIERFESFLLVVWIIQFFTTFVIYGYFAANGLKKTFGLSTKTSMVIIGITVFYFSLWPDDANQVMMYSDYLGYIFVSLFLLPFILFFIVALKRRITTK
Sequence of GerA complex (GerAA-GerAB-GerAC) (P07870 18-373, further chain): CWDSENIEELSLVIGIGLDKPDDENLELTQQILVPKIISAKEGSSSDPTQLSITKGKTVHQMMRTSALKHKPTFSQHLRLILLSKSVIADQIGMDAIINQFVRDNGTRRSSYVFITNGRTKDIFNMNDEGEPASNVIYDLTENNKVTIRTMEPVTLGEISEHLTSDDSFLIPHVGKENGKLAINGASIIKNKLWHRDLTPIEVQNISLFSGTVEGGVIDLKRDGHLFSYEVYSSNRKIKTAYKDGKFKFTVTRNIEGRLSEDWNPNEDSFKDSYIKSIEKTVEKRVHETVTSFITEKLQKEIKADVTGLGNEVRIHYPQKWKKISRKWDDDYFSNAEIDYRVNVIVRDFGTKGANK
Sequence of GerA complex (GerAA-GerAB-GerAC) (P07868 whole entry, further chain): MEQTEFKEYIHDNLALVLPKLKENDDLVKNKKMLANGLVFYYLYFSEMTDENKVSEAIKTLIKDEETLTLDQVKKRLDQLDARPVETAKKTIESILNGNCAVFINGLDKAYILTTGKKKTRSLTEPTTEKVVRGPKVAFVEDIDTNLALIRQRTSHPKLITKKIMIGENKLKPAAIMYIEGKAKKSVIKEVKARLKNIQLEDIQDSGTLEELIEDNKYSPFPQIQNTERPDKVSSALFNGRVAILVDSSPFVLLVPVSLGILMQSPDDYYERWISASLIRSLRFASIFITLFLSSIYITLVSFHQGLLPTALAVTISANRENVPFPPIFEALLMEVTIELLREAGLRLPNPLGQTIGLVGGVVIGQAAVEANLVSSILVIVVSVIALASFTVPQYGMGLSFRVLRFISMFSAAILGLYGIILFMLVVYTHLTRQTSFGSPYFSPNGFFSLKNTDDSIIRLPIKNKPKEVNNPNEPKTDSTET

% reduction in DiSC3(5) fluorescence at 50 mM: 30%
SMILES: C[C@H](N)C(=O)O [L-alanine]
